In patent publication US20240238424A1, “HETEROBIFUNCTIONAL COMPOUNDS AND METHODS OF TREATING DISEASE” (Halda Therapeutics OpCo, Inc., priority 2021, published 2024):

Key:
HeLa KRas G12C cells = test: Cellular growth inhibition assay (CTG), HeLa KRas G12C cells; type: cell-based; conditions: Homo sapiens, CellTiter-Glo 2.0, day-5
Experimental: Cells were seeded in Poly-D-lysine-treated 384-well white plates, with 25 μL cell suspension at 250 cells/well for continuous treatments, and 1000 cells/well for washout treatments. Plates were spun at 300×g for 3 minutes, and cells were cultured at 37° C. with 5% CO2 in a humidified tissue culture incubator.
After 24 hours, the test compounds were diluted with cell culture medium in 96 deep well plates. DMSO was used as a negative control. A 25 μL aliquot of compound-containing medium was added in each well, at a final top concentration of 10 μM or 30 μM test compound, with 3-fold dilutions. For washout assays, after 4 hours, cell medium with compound was removed, and the cells were washed with 75p L fresh medium. Plates were then spun at 300×g for 3 minutes and replaced with 50 μL fresh medium in each well. Plates were then spun at 300×g for 3 minutes again and cultured at 37° C. with 5% CO2.
At day-0 and day-5 of compound treatments, cell viability was quantified with CellTiter-Glo 2.0 (Promega). After equilibrating cell plates at room temperature for 30 minutes, 25 μL CellTiter-Glo 2.0 reagent was dispensed into each well (on top of 50 μL of cell culture). Plates were mixed on a shaker for 2 minutes at 500 rpm, followed by a 10-minute incubation at room temperature. Luminescence readings were measured with an EnVision Plate Reader. Data was normalized to DMSO treated day-0 cell wells. A four-parameter non-linear regression curve fit was applied to dose-response data in Prism to determine the half maximal growth inhibitory concentration (GI50) of each compound.

GSPT1 = biological target: T1, GSPT1 (Homo sapiens, UniProt P15170+Q96SW2); test: GSPT1 HiBit degradation assay; type: cell-based; conditions: HEK293 LgBiT cells expressing GSPT1_HiBiT, luminescence after 6 hours
T1 construct: host or cells: HEK293 LgBiT cell line
T1 sequence (P15170 whole entry): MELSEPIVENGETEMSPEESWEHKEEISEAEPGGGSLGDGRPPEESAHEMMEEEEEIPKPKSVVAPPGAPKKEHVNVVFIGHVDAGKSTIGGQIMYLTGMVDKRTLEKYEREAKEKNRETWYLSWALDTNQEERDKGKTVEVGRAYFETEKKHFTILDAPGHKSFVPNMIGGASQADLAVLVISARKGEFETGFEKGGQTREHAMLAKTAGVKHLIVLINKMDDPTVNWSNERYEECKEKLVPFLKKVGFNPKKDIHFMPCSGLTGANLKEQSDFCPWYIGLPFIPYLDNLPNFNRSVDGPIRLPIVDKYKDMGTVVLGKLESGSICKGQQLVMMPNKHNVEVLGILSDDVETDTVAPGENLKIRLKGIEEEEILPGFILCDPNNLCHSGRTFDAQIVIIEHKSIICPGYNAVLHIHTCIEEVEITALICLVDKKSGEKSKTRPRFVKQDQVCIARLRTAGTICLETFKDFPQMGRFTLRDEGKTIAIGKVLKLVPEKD
T1 sequence (Q96SW2 whole entry): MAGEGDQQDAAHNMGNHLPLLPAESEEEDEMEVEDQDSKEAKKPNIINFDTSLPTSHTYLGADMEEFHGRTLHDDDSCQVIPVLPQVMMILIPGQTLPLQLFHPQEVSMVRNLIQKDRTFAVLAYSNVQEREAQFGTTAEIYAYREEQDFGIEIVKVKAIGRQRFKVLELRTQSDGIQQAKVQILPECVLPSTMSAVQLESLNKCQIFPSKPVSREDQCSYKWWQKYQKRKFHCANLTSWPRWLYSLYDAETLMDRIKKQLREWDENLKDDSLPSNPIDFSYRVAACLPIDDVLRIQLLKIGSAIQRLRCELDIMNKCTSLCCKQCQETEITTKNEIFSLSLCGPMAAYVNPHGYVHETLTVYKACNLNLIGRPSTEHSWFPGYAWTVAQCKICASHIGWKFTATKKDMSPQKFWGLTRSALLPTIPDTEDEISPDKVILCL
T1 sequence (Q16531 whole entry partner): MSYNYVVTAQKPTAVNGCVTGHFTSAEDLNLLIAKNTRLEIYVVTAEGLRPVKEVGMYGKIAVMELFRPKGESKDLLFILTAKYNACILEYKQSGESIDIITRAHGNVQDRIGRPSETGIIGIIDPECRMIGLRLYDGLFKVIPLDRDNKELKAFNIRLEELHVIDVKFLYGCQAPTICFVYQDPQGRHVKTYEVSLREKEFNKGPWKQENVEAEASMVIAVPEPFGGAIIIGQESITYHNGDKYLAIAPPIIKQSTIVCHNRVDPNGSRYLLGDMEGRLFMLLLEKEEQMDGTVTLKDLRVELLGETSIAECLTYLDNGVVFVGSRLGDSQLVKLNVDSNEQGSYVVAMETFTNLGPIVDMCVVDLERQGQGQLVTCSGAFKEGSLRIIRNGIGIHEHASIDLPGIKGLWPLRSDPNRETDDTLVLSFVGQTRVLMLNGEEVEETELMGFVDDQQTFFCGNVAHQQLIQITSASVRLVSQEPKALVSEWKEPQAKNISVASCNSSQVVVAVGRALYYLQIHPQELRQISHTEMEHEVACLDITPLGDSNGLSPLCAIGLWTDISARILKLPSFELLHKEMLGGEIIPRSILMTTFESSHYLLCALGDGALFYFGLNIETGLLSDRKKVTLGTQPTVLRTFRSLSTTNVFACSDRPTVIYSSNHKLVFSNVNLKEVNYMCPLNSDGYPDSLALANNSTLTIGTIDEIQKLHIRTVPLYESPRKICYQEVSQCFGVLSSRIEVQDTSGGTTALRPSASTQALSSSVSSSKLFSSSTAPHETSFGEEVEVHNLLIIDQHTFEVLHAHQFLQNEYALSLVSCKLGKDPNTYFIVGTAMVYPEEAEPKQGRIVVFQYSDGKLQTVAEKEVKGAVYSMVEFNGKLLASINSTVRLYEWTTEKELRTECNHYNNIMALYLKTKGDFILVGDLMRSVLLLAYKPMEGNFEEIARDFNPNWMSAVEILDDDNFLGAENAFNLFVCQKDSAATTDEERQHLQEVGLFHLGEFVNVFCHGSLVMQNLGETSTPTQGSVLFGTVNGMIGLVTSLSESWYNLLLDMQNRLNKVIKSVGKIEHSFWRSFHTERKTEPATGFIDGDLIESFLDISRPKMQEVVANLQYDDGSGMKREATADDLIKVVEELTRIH
Procedure, shortened: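 Degradation readout is luminescence at 6 h, with DC50 taken as the concentration giving 50% GSPT1 loss. Compound titrations were added together with endurazine (0.5× final) to HEK293 LgBiT/GSPT1-HiBiT cells seeded the day before and kept at 37 °C.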

| GI50 (HeLa KRas G12C cells) [µM] | DC50 (GSPT1; Table 3A) [µM] | DC50 (GSPT1; Table 3) [µM] | Structure (SMILES) |
| --- | --- | --- | --- |
| 1 to 3 | 0.25 to 5 | – | C=C(F)C(=O)N1CCN(c2nc(OC[C@@H]3CCCN3CCCOCCOCCOCCOCCOCCOCCOCCCCCc3cc(Cl)cc(NC(=O)NCc4ccc5c(c4)CN(C4CCC(=O)NC4=O)C5=O)c3)nc3c2CCN(c2cccc4cccc(Cl)c24)C3)C[C@@H]1CC#N (stereo partly shown) [Compound I-118] |
| < 1 | – | 0.25 to 5 | C=C(F)C(=O)N1CCN(c2nc(OC[C@@H]3CCCN3CCOCCOCCOCCOCCOCCOCCOCCOCCOCCOCCCCCCCCCCCCCCc3cc(Cl)cc(NC(=O)NCc4ccc5c(c4)CN(C4CCC(=O)NC4=O)C5=O)c3)nc3c2CCN(c2cccc4cccc(Cl)c24)C3)C[C@@H]1CC#N (stereo partly shown) [Compound I-52] |
| 3 to 10 | – | 5 to 10 | C=C(F)C(=O)N1CCN(c2nc(OC[C@@H]3CCCN3CCOCCOCCOCCOCCOCCOCCOCCOCCOCCOCCOc3cc(Cl)cc(NC(=O)NCc4ccc5c(c4)CN(C4CCC(=O)NC4=O)C5=O)c3)nc3c2CCN(c2cccc4cccc(Cl)c24)C3)C[C@@H]1CC#N (stereo partly drawn) [Compound I-10, 1-[3-chloro-5-[2-[2-[2-[2-[2-[2-[2-[2-[2-[2-[2-[(2S)-2-[[7-(8-chloro-1-naphthyl)-4-[(3S)-3-(cyanomethyl)-4-(2-fluoroprop-2-enoyl)piperazin-1-yl]-6,8-dihydro-5H-pyrido[3,4-d]pyrimidin-2-yl]oxymethyl]pyrrolidin-1-yl]ethoxy]ethoxy]ethoxy]ethoxy]ethoxy]ethoxy]ethoxy]ethoxy]ethoxy]ethoxy]ethoxy]phenyl]-3-[[2-(2,6-dioxo-3-piperidyl)-1-oxo-isoindolin-5-yl]methyl]urea] |
| > 10 | – | > 10 | C=C(F)C(=O)N1CCN(c2nc(OC[C@@H]3CCCN3CCOCCOCCOCCOCCOCCOCCOCCOCCc3cc(Cl)cc(NC(=O)NCc4ccc5c(c4)CN(C4CCC(=O)NC4=O)C5=O)c3)nc3c2CCN(c2cccc4cccc(Cl)c24)C3)C[C@@H]1CC#N (stereo partly drawn) [Compound I-11, 1-[3-chloro-5-[2-[2-[2-[2-[2-[2-[2-[2-[2-[(2S)-2-[[7-(8-chloro-1-naphthyl)-4-[(3S)-3-(cyanomethyl)-4-(2-fluoroprop-2-enoyl)piperazin-1-yl]-6,8-dihydro-5H-pyrido[3,4-d]pyrimidin-2-yl]oxymethyl]pyrrolidin-1-yl]ethoxy]ethoxy]ethoxy]ethoxy]ethoxy]ethoxy]ethoxy]ethoxy]ethyl]phenyl]-3-[[2-(2,6-dioxo-3-piperidyl)-1-oxo-isoindolin-5-yl]methyl]urea] |
| 3 to 10 | 0.25 to 5 | – | C=C(F)C(=O)N1CCN(c2nc(OC[C@@H]3CCCN3CCCOCCOCCOCCOCCOCCOCCOCCOCCOCCOCCOCCCCCc3cccc(NC(=O)NCc4ccc5c(c4)CN(C4CCC(=O)NC4=O)C5=O)n3)nc3c2CCN(c2cccc4cccc(Cl)c24)C3)C[C@@H]1CC#N (stereo partly shown) [Compound I-148] |
| 1 to 3 | – | 0.25 to 5 | C=C(F)C(=O)N1CCN(c2nc(OC[C@@H]3CCCN3CCCCCCCCc3cc(Cl)cc(NC(=O)NCc4ccc5c(c4)CN(C4CCC(=O)NC4=O)C5=O)c3)nc3c2CCN(c2cccc4cccc(Cl)c24)C3)C[C@@H]1CC#N (stereo partly drawn) [Compound I-1, 1-[3-chloro-5-[8-[(2S)-2-[[7-(8-chloro-1-naphthyl)-4-[(3S)-3-(cyanomethyl)-4-(2-fluoroprop-2-enoyl)piperazin-1-yl]-6,8-dihydro-5H-pyrido[3,4-d]pyrimidin-2-yl]oxymethyl]pyrrolidin-1-yl]octyl]phenyl]-3-[[2-(2,6-dioxo-3-piperidyl)-1-oxo-isoindolin-5-yl]methyl]urea] |
| > 10 | – | 5 to 10 | C=CC(=O)N1CCN(c2nc(NCCOCCOCCOCCOCCOCCOCCc3cc(Cl)cc(NC(=O)NCc4ccc5c(c4)CN(C4CCC(=O)NC4=O)C5=O)c3)nc3c(F)c(-c4cc(O)cc5ccccc45)c(Cl)cc23)CC1 (stereo not shown) [Compound I-7, 1-[3-chloro-5-[2-[2-[2-[2-[2-[2-[2-[[6-chloro-8-fluoro-7-(3-hydroxy-1-naphthyl)-4-(4-prop-2-enoylpiperazin-1-yl)quinazolin-2-yl]amino]ethoxy]ethoxy]ethoxy]ethoxy]ethoxy]ethoxy]ethyl]phenyl]-3-[[2-(2,6-dioxo-3-piperidyl)-1-oxo-isoindolin-5-yl]methyl]urea] |
| > 10 | – | > 10 | C=CC(=O)N1CCN(c2nc(NCCOCCOCCOCCOCCOCCOCCOCCOCCOCCOCCc3cc(Cl)cc(NC(=O)NCc4ccc5c(c4)CN(C4CCC(=O)NC4=O)C5=O)c3)nc3c(F)c(-c4cc(O)cc5ccccc45)c(Cl)cc23)CC1 (stereo not shown) [Compound I-16, 1-[3-chloro-5-[2-[2-[2-[2-[2-[2-[2-[2-[2-[2-[2-[[6-chloro-8-fluoro-7-(3-hydroxy-1-naphthyl)-4-(4-prop-2-enoylpiperazin-1-yl)quinazolin-2-yl]amino]ethoxy]ethoxy]ethoxy]ethoxy]ethoxy]ethoxy]ethoxy]ethoxy]ethoxy]ethoxy]ethyl]phenyl]-3-[[2-(2,6-dioxo-3-piperidyl)-1-oxo-isoindolin-5-yl]methyl]urea] |
| > 10 | – | > 10 | C=C(F)C(=O)N1CCN(c2nc(OC[C@@H]3CCCN3CCOCCOCCOCCOCCOCCOCCOCCOCCOCCOCCOCCOCCOc3cc(Cl)cc(NC(=O)NCc4ccc5c(c4)CN(C4CCC(=O)NC4=O)C5=O)c3)nc3c2CCN(c2cccc4cccc(Cl)c24)C3)C[C@@H]1CC#N (stereo partly shown) [Compound I-42] |
| 3 to 10 | 5 to 10 | – | C=C(F)C(=O)N1CCN(c2nc(OC[C@@H]3CCCN3CCCOCCOCCOCCOCCOCCOCCOCCCCCc3cccc(NC(=O)NCc4ccc5c(c4)CN(C4CCC(=O)NC4=O)C5=O)n3)nc3c2CCN(c2cccc4cccc(Cl)c24)C3)C[C@@H]1CC#N (stereo partly shown) [Compound I-147] |
| 1 to 3 | 0.25 to 5 | – | CN(C/C=C/C(=O)N1CCN(c2nc(OC[C@@H]3CCCN3C)nc3c2CCN(c2cccc4cccc(Cl)c24)C3)C[C@@H]1CC#N)CCOCCOCCOCCOCCOCCCCCc1cc(Cl)cc(NC(=O)NCc2ccc3c(c2)CN(C2CCC(=O)N(C)C2=O)C3=O)c1 (stereo partly shown) [Compound I-116] |
| > 10 | – | > 10 | C=CC(=O)N1CCN(c2nc(NCCOCCOCCOCCOCCOCCOCCOCCOCCOCCOCCOc3cc(Cl)cc(NC(=O)NCc4ccc5c(c4)CN(C4CCC(=O)NC4=O)C5=O)c3)nc3c(F)c(-c4cc(O)cc5ccccc45)c(Cl)cc23)CC1 (stereo not shown) [Compound I-14, 1-[3-chloro-5-[2-[2-[2-[2-[2-[2-[2-[2-[2-[2-[2-[[6-chloro-8-fluoro-7-(3-hydroxy-1-naphthyl)-4-(4-prop-2-enoylpiperazin-1-yl)quinazolin-2-yl]amino]ethoxy]ethoxy]ethoxy]ethoxy]ethoxy]ethoxy]ethoxy]ethoxy]ethoxy]ethoxy]ethoxy]phenyl]-3-[[2-(2,6-dioxo-3-piperidyl)-1-oxo-isoindolin-5-yl]methyl]urea] |
| > 10 | – | > 10 | C=CC(=O)N1CCN(c2nc(NCCC(=O)N(C)CCOCCOCCOCCOCCOCCOCCc3cc(Cl)cc(NC(=O)NCc4ccc5c(c4)CN(C4CCC(=O)NC4=O)C5=O)c3)nc3c(F)c(-c4cc(O)cc5ccccc45)c(Cl)cc23)CC1 (stereo not shown) [Compound I-17] |
| < 1 | – | < 0.25 | C=C(F)C(=O)N1CCN(c2nc(OC[C@@H]3CCCN3CCOCCOCCOCCOCCOCCOCCOCCOCCOCCOCCOCCOCCCCCCCCCCCCCCc3cc(Cl)cc(NC(=O)NCc4ccc5c(c4)CN(C4CCC(=O)NC4=O)C5=O)c3)nc3c2CCN(c2cccc4cccc(Cl)c24)C3)C[C@@H]1CC#N (stereo partly shown) [Compound I-53] |
| 3 to 10 | – | > 10 | C=C(F)C(=O)N1CCN(c2nc(OC[C@@H]3CCCN3CCCCCCCCNc3cccc4c3CN(C3CCC(=O)NC3=O)C4=O)nc3c2CCN(c2cccc4cccc(Cl)c24)C3)C[C@@H]1CC#N (stereo partly drawn) [Compound I-3, 2-((2S)-4-(7-(8-chloronaphthalen-1-yl)-2-(((2S)-1-(8-((2-(2,6-dioxopiperidin-3-yl)-1-oxoisoindolin-4-yl)amino)octyl)pyrrolidin-2-yl)methoxy)-5,6,7,8-tetrahydropyrido[3,4-d]pyrimidin-4-yl)-1-(2-fluoroacryloyl)piperazin-2-yl)acetonitrile] |
| 3 to 10 | – | > 10 | C=C(F)C(=O)N1CCN(c2nc(OC[C@@H]3CCCN3CCCCCCCCc3cccc4c3CN(C3CCC(=O)NC3=O)C4=O)nc3c2CCN(c2cccc4cccc(Cl)c24)C3)C[C@@H]1CC#N (stereo partly drawn) [Compound I-4, 2-[(2S)-4-[7-(8-chloro-1-naphthyl)-2-[[(2S)-1-[8-[2-(2,6-dioxo-3-piperidyl)-1-oxo-isoindolin-4-yl]octyl]pyrrolidin-2-yl]methoxy]-6,8-dihydro-5H-pyrido[3,4-d]pyrimidin-4-yl]-1-(2-fluoroprop-2-enoyl)piperazin-2-yl]acetonitrile] |
| 3 to 10 | 0.25 to 5 | – | C=C(F)C(=O)N1CCN(c2nc(OC[C@@H]3CCCN3CCCOCCOCCOCCOCCOCCOCCOCCCCCc3ccc(Cl)cc3NC(=O)NCc3ccc4c(c3)CN(C3CCC(=O)NC3=O)C4=O)nc3c2CCN(c2cccc4cccc(Cl)c24)C3)C[C@@H]1CC#N (stereo partly shown) [Compound I-137] |
